Experimental data published in ChEMBL document CHEMBL1201862, “PubChem BioAssay data set” (2004).
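Exposure lasted 48 hours, with cells grown in 96-well plates and compounds tested at five concentrations. GI50 marks 50% less growth.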 Activity calls are given as the source filed them. Rule as the data show it: active = GI50 up to about 1.1 µM and inactive = higher.

Experiments:
Assay in all cases: growth of human tumour cells (NCI), 48 h
NCI-H23 = system: NCI-H23
OVCAR-8 = system: OVCAR-8
SK-OV-3 = system: SK-OV-3
HOP-62 = system: HOP-62
HCT-116 = system: HCT-116
M14 = system: M14
RPMI-8226 = system: RPMI-8226
LOX IMVI = system: LOX IMVI
NCI-H522 = system: NCI-H522
T47D = system: T47D
U-251 = system: U-251
IGROV-1 = system: IGROV-1
UO-31 = system: UO-31
TK-10 = system: TK-10
HCT-15 = system: HCT-15
HT-29 = system: HT-29
MOLT-4 = system: MOLT-4
SF-539 = system: SF-539
HL-60 = system: HL-60
CAKI-1 = system: CAKI-1

| SMILES | GI50 (NCI-H23) | GI50 (OVCAR-8) | GI50 (SK-OV-3) | GI50 (HOP-62) | GI50 (HCT-116) | GI50 (M14) | GI50 (RPMI-8226) | GI50 (LOX IMVI) | GI50 (NCI-H522) | GI50 (T47D) | GI50 (U-251) | GI50 (IGROV-1) | GI50 (UO-31) | GI50 (TK-10) | GI50 (HCT-15) | GI50 (HT-29) | GI50 (MOLT-4) | GI50 (SF-539) | GI50 (HL-60) | GI50 (CAKI-1) |
| --- | --- | --- | --- | --- | --- | --- | --- | --- | --- | --- | --- | --- | --- | --- | --- | --- | --- | --- | --- | --- |
| Cc1cn(CC2=NCCCN2)c(=O)[nH]c1=O | > 100 µM (inactive) | > 100 µM (inactive) | > 100 µM (inactive) | > 100 µM (inactive) | > 100 µM (inactive) | > 100 µM (inactive) | > 100 µM (inactive) | > 100 µM (inactive) | > 100 µM (inactive) | > 100 µM (inactive) | > 100 µM (inactive) | > 100 µM (inactive) | > 100 µM (inactive) | > 100 µM (inactive) | > 100 µM | > 100 µM (inactive) | > 100 µM (inactive) | – | – | – |
| COc1ccc(-n2nnc3c(C#N)c(C)c(-c4ccccc4)n3c2=O)cc1 | 3.34 µM (inactive) | 4.92 µM (inactive) | 2.29 µM (inactive) | 4.04 µM (inactive) | 0.501 µM (active) | 1.4 µM (inactive) | 1.99 µM (inactive) | 3.31 µM (inactive) | – | 1.76 µM (inactive) | 11.3 µM (inactive) | 2.22 µM (inactive) | 4.33 µM (inactive) | > 43.2 µM (inactive) | 4.72 µM | 4.42 µM (inactive) | 0.455 µM (active) | 2.04 µM (inactive) | – | – |
| O=[N+]([O-])c1ccc(C(c2c[nH]c3ccccc23)c2c[nH]c3ccccc23)cc1 | 7.1 µM (inactive) | 14.7 µM (inactive) | 16.8 µM (inactive) | 13.5 µM (inactive) | – | 11.7 µM (inactive) | 1.45 µM (inactive) | 11.1 µM (inactive) | – | 0.653 µM (active) | 11.8 µM (inactive) | – | 10.9 µM (inactive) | 12.7 µM (inactive) | 11 µM | 11.5 µM (inactive) | 9.66 µM (inactive) | 16.4 µM (inactive) | 17.7 µM (inactive) | – |
| COc1ccc(-c2cc(-c3ccc(Nc4ccnc5cc(C(F)(F)F)ccc45)cc3)[nH]c(=O)c2C#N)cc1 | > 38.4 µM (inactive) | > 77.4 µM (inactive) | – | – | 11.4 µM (inactive) | 27.2 µM (inactive) | > 100 µM (inactive) | 16.6 µM (inactive) | > 100 µM (inactive) | 45.7 µM (inactive) | 9.57 µM (inactive) | > 81.5 µM (inactive) | – | > 43.6 µM (inactive) | > 100 µM | > 33.2 µM (inactive) | > 100 µM (inactive) | 21 µM (inactive) | > 100 µM (inactive) | > 100 µM (inactive) |
| COc1ccc(-c2cc(-c3ccc(O)cc3O)c(C#N)c(=O)[nH]2)cc1 | 26.2 µM (inactive) | 31.9 µM (inactive) | 16.1 µM (inactive) | 17.9 µM (inactive) | 19.1 µM (inactive) | 16 µM (inactive) | 15.7 µM (inactive) | 16.6 µM (inactive) | – | 93.3 µM (inactive) | 18.7 µM (inactive) | – | 34.4 µM (inactive) | 26.5 µM (inactive) | 31.9 µM | 18.1 µM (inactive) | 18.6 µM (inactive) | 17.6 µM (inactive) | 29.7 µM (inactive) | 23.8 µM (inactive) |
| Nc1c(-c2nc3ccccc3s2)c2ccc([N+](=O)[O-])cc2c(=O)n1-c1cccc(C(=O)O)c1 | 25.4 µM (inactive) | 27.7 µM (inactive) | – | – | 21.2 µM (inactive) | – | – | 31.8 µM (inactive) | 37.8 µM (inactive) | 21 µM (inactive) | 23.4 µM (inactive) | – | 24.1 µM (inactive) | 19 µM (inactive) | 27.4 µM | 86.1 µM (inactive) | – | – | 18.1 µM (inactive) | 27.5 µM (inactive) |
| COc1ccc(OC)c2c1ccc1c(C)c3ccccc3c(C)c12 | 89.5 µM (inactive) | > 100 µM (inactive) | – | 86.5 µM (inactive) | 67.9 µM (inactive) | 82 µM (inactive) | > 100 µM (inactive) | 60.1 µM (inactive) | 75.9 µM (inactive) | > 100 µM (inactive) | > 100 µM (inactive) | > 100 µM (inactive) | 82.2 µM (inactive) | > 100 µM (inactive) | 18 µM | 95.1 µM (inactive) | 88.9 µM (inactive) | – | 57.1 µM (inactive) | > 100 µM (inactive) |
| Cc1ccc(S(=O)(=O)NNC(=O)Nc2ccc([N+](=O)[O-])cc2)cc1 | 36.7 µM (inactive) | 17.4 µM (inactive) | – | 27.9 µM (inactive) | 26.9 µM (inactive) | 89.5 µM (inactive) | 20 µM (inactive) | 52.4 µM (inactive) | 26.5 µM (inactive) | 2.65 µM (inactive) | 31 µM (inactive) | 35.2 µM (inactive) | 47 µM (inactive) | 67.3 µM (inactive) | 24.5 µM | 43.5 µM (inactive) | 46.3 µM (inactive) | 50.7 µM (inactive) | 36.1 µM (inactive) | 65.8 µM (inactive) |
| COc1cc(OC)c(C/C=C/c2ccccc2)cc1O | 17.4 µM (inactive) | 16.1 µM (inactive) | – | – | 16.4 µM (inactive) | 19 µM (inactive) | 14.9 µM (inactive) | 16 µM (inactive) | 12.6 µM (inactive) | 10.6 µM (inactive) | 16.7 µM (inactive) | 16.3 µM (inactive) | 14.7 µM (inactive) | 16.4 µM (inactive) | 16.5 µM | 17.7 µM (inactive) | 11.8 µM (inactive) | 16.2 µM (inactive) | 19.3 µM (inactive) | 21.5 µM (inactive) |
| CN(C)c1ccc(C(C#N)NNC(=O)Cc2ccccc2)cc1 (stereo not given) | > 100 µM (inactive) | > 100 µM (inactive) | > 100 µM (inactive) | > 100 µM (inactive) | > 100 µM (inactive) | > 100 µM (inactive) | > 100 µM (inactive) | > 100 µM (inactive) | > 100 µM (inactive) | – | > 100 µM (inactive) | > 100 µM (inactive) | > 100 µM (inactive) | > 100 µM (inactive) | > 100 µM | > 100 µM (inactive) | > 100 µM (inactive) | > 100 µM (inactive) | > 100 µM (inactive) | > 100 µM (inactive) |
| O=C1CSC2(CC(/C=C/c3cccs3)=NN2c2cccc(S(=O)(=O)O)c2)N1c1nc2ccccc2s1 (stereo not given) | 42.7 µM (inactive) | > 100 µM (inactive) | – | – | > 100 µM (inactive) | > 100 µM (inactive) | 31.1 µM (inactive) | 48.4 µM (inactive) | 64.9 µM (inactive) | 21 µM (inactive) | 65.6 µM (inactive) | 27.4 µM (inactive) | 83.6 µM (inactive) | 62.1 µM (inactive) | > 100 µM | > 100 µM (inactive) | 35.7 µM (inactive) | > 100 µM (inactive) | > 100 µM (inactive) | > 100 µM (inactive) |
| CC(C)(C)OC(=O)NC1CCCC1C(=O)C1=CCCC1 (stereo not given) | 85.7 µM (inactive) | > 100 µM (inactive) | > 100 µM (inactive) | > 100 µM (inactive) | 97.3 µM (inactive) | > 100 µM (inactive) | > 100 µM (inactive) | 50.6 µM (inactive) | – | 28.6 µM (inactive) | > 100 µM (inactive) | 33.4 µM (inactive) | – | – | 59 µM | > 100 µM (inactive) | > 100 µM (inactive) | – | > 100 µM (inactive) | – |
